Source: patent EP0968222B1, “NOVEL ERYTHROMYCIN DERIVATIVES, METHOD OF PREPARATION AND APPLICATION AS MEDICINES” (Aventis Pharma S.A., priority 1997, dated 1998)
Converted amounts (≈) assume the structure as drawn.

Legend:
Assay in all cases: Liquid medium dilution method (MIC)
Format in all cases: cell-based
[1] = test system: Streptococcus agalactiae groupe B 02B1SJ1; conditions: 24 h incubation at 37°C, read-out: concentrations minimales inhibitrices (C.M.I.)
Experimental: (§1) Méthode des dilutions en milieu liquide
(§2) On prépare une série de tubes dans lesquels on répartit une même quantité de milieu nutritif stérile. On distribue dans chaque tube des quantités croissantes du produit à étudier, puis chaque tube est ensemencé avec une souche bactérienne. Après incubation de vingt-quatre heures à l'étuve à 37°C, l'inhibition de la croissance est appréciée par transillumination, ce qui permet de déterminer les concentrations minimales inhibitrices (C.M.I.) exprimées en microgrammes/cm^3.

[2] = test system: Streptococcus pneumoniae 032UC1; conditions: 24 h incubation at 37°C, read-out: concentrations minimales inhibitrices (C.M.I.)
Experimental: as §1, §2

[3] = test system: Streptococcus pneumoniae 030SJ1c; conditions: 24 h incubation at 37°C, read-out: concentrations minimales inhibitrices (C.M.I.)
Experimental: as §1, §2

[4] = test system: Streptococcus pneumoniae 030GR20; conditions: 24 h incubation at 37°C, read-out: concentrations minimales inhibitrices (C.M.I.)
Experimental: as §1, §2

[5] = test system: Streptococcus pneumoniae 030RO1i; conditions: 24 h incubation at 37°C, read-out: concentrations minimales inhibitrices (C.M.I.)
Experimental: as §1, §2

[6] = test system: Streptococcus pyogenes groupe A 02A1UC1; conditions: 24 h incubation at 37°C, read-out: concentrations minimales inhibitrices (C.M.I.)
Experimental: as §1, §2

[7] = test system: Streptococcus faecium groupe D 02D3HT1; conditions: Enterococcus faecium, 24 h incubation at 37°C, read-out: concentrations minimales inhibitrices (C.M.I.)
Experimental: as §1, §2

Streptococcus sanguis = conditions: 24 h incubation at 37°C, read-out: concentrations minimales inhibitrices (C.M.I.)
Experimental: as §1, §2

[8] = test system: Streptococcus mitis 02mitCB1; conditions: 24 h incubation at 37°C, read-out: concentrations minimales inhibitrices (C.M.I.)
Experimental: as §1, §2

[9] = test system: Streptococcus agalactiae groupe B 02B1HT1; conditions: 24 h incubation at 37°C, read-out: concentrations minimales inhibitrices (C.M.I.)
Experimental: as §1, §2

[10] = test system: Streptococcus pneumoniae 030PW23c; conditions: 24 h incubation at 37°C, read-out: concentrations minimales inhibitrices (C.M.I.)
Experimental: as §1, §2

[11] = test system: Streptococcus faecalis groupe D 02D2UC1; conditions: Enterococcus faecalis, 24 h incubation at 37°C, read-out: concentrations minimales inhibitrices (C.M.I.)
Experimental: as §1, §2

[12] = test system: Staphylococcus aureus 011UC4; conditions: 24 h incubation at 37°C, read-out: concentrations minimales inhibitrices (C.M.I.)
Experimental: as §1, §2

CC[C@H]1OC(=O)[C@H](C)C(=O)[C@H](C)[C@@H](O[C@@H]2O[C@H](C)C[C@H](N(C)C)[C@H]2O)[C@](C)(OC)C[C@@H](C)/C(=N\OC2CCCNC2)[C@H](C)[C@H]2N(NCCCc3ccnc4ccccc34)C(=O)O[C@]12C (stereo partly shown) [Exemple 3]
MIC [1]: 0.08 µg/mL (≈ 0.0894 µM)
MIC [2]: ≤ 0.02 µg/mL
MIC [3]: 0.15 µg/mL (≈ 0.168 µM)
MIC [4]: 0.04 µg/mL (≈ 0.0447 µM)
MIC [5]: 0.08 µg/mL (≈ 0.0894 µM)
MIC [6]: 0.08 µg/mL (≈ 0.0894 µM)
MIC [7]: 0.08 µg/mL (≈ 0.0894 µM)
MIC (Streptococcus sanguis): 0.08 µg/mL (≈ 0.0894 µM)
MIC [8]: 0.04 µg/mL (≈ 0.0447 µM)
MIC [9]: 0.08 µg/mL (≈ 0.0894 µM)
MIC [10]: 0.08 µg/mL (≈ 0.0894 µM)
MIC [11]: 0.08 µg/mL (≈ 0.0894 µM)
MIC [12]: 0.3 µg/mL (≈ 0.335 µM)
